From patent US20250121068A1, “BIFUNCTIONAL MOLECULES AS PROTEASOME STIMULATORS FOR IMPROVED TARGETED PROTEIN DEGRADATION, AND THEIR USES AS TARGETED BOOSTING DEGRADERS (TARBODS)” (BOOSTER THERAPEUTICS GMBH, priority 2021, published 2025)

Key:
a-synuclein = target: T1, a-synuclein (Homo sapiens, UniProt P37840); assay: a-synuclein degradation in HEK293 cells (western blot); format: cell-based; settings: a-synuclein transfection 48 h, dosed 3 h at 25 μM with 50 μM cycloheximide, compared to DMSO and MO
T1 construct: expressed in transfected cells; host or cells: HEK293
Procedure: After a-synuclein transfection for 48 h, the compounds were dosed for 3 h at 25 μM together with 50 μM cycloheximide, and the total a-synuclein was determined using western blot. DMSO samples were used as control (dashed line).
FIGS. 2 to 4 show the results of the functional assay for the compounds of group I, FIG. 2 based on proteasome stimulation in vitro. The biochemical assay was performed with a purified human 20S proteasome. The compounds were incubated with 20S proteasomes for 1 h, and the proteasome activity was measured with a TAS-1 probe. DMSO samples were used as control. […] The inventive compounds are better stimulators than the activator alone (MO), especially when they have a longer linker, e.g. (PEG)4-5.

tau = tau degradation in HEK293 cells (western blot); format: cell-based; settings: tau transfection 48 h, dosed 16 h at 25 μM with 30 μM cycloheximide, DMSO control
Procedure: After tau transfection for 48 h, the compounds were dosed for 16 h at 25 μM together with 30 μM cycloheximide, and total tau was determined (western blot). DMSO samples were used as control (dashed line).
The biochemical assay was performed with a purified human 20S proteasome. The compounds were incubated with 20S proteasomes for 1 h, and the proteasome activity was measured with a TAS-1 probe. DMSO samples were used as control (dashed line). The inventive compounds are better stimulators than the activator alone (MO), especially when they have a longer linker, e.g., (PEG)4-5. […] For proteasome activity in HEK293 cells, the compounds were dosed for 1.5 h, and the proteasome activity measured with Me4BodipyFLAhx3L3VS activity probe. DMSO samples were used as control (dashed line). […] Compounds were dosed for 24 h, and the viability measured with CellTiter-Glo. DMSO samples were used as control (dashed line). […] After tau transfection for 48 h, the compounds were dosed for 16 h at 25 μM together with 30 μM cycloheximide, and total tau was determined (western blot). DMSO samples were used as control (dashed line).

SMILES | a-synuclein degradation (total a-synuclein) (a-synuclein) | tau degradation (total tau) (tau)
CNc1ccc(-c2nc3ccc(OCCOCCNC(=O)c4ccc(COC(Cn5ccnc5)c5ccc(Cl)cc5Cl)cc4)cc3s2)cc1 (stereo not drawn) [DS001, 4-((1-(2,4-dichlorophenyl)-2-(1H-imidazol-1-yl)ethoxy)methyl)-N-(2-(2-((2-(4-(methylamino)phenyl)benzo[d]thiazol-6-yl)oxy)ethoxy)ethyl)benzamide] | clear improvement in degrading a-synuclein | 
CNc1ccc(-c2nc3ccc(OCCOCCOCCOCCNC(=O)c4ccc(COC(Cn5ccnc5)c5ccc(Cl)cc5Cl)cc4)cc3s2)cc1 (stereo not drawn) [DS003, 4-((1-(2,4-dichlorophenyl)-2-(1H-imidazol-1-yl)ethoxy)methyl)-N-(2-(2-(2-(2-((2-(4-(methylamino)phenyl)benzo[d]thiazol-6-yl)oxy)ethoxy)ethoxy)ethoxy)ethyl)benzamide] | clear improvement in degrading a-synuclein | 
O=C(CCc1ccc2c(c1)[nH]c1ccncc12)NCCOCCNC(=O)c1ccc(COC(Cn2ccnc2)c2ccc(Cl)cc2Cl)cc1 (stereo not drawn) [DT-001, N-(2-(2-(3-(5H-pyrido[4,3-b]indol-7-yl)propanamido)ethoxy)ethyl)-4-((1-(2,4-dichlorophenyl)-2-(1H-imidazol-1-yl)ethoxy)methyl)benzamide] |  | clear tau degradation improvement
